Results: PubChem BioAssay (NCI)
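48-hour exposure; five concentrations; linearly interpolated endpoints. GI50 is the concentration that inhibits growth by half. TGI is the concentration that stops growth completely.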

Tests used:
Experiment in all cases: DTP human tumour cell line panel, 48 h
HL-60(TB) leukemia = system: HL-60(TB) leukemia
MOLT-4 leukemia = system: MOLT-4 leukemia
UO-31 renal = system: UO-31 renal
OVCAR-4 ovarian = system: OVCAR-4 ovarian
SK-MEL-5 melanoma = system: SK-MEL-5 melanoma
A498 renal = system: A498 renal
ACHN renal = system: ACHN renal
SNB-19 CNS = system: SNB-19 CNS
TK-10 renal = system: TK-10 renal
U251 CNS = system: U251 CNS

Structure (SMILES)	GI50 (HL-60(TB) leukemia)	TGI (HL-60(TB) leukemia)	GI50 (MOLT-4 leukemia)	TGI (MOLT-4 leukemia)	GI50 (UO-31 renal)	TGI (UO-31 renal)	GI50 (OVCAR-4 ovarian)	TGI (OVCAR-4 ovarian)	GI50 (SK-MEL-5 melanoma)	TGI (SK-MEL-5 melanoma)	GI50 (A498 renal)	TGI (A498 renal)	GI50 (ACHN renal)	TGI (ACHN renal)	GI50 (SNB-19 CNS)	TGI (SNB-19 CNS)	GI50 (TK-10 renal)	TGI (TK-10 renal)	GI50 (U251 CNS)	TGI (U251 CNS)
Fc1ccc(-c2ncn(C3CCNCC3)c2-c2ccnc(Oc3ccccc3)n2)cc1	> 16.6 µM	> 25 µM	23.4 µM	> 25 µM	7.72 µM	> 25 µM	> 25 µM	> 25 µM	4.87 µM	14.1 µM	> 16.1 µM	> 25 µM	7.22 µM	> 25 µM	> 25 µM	> 25 µM	21.2 µM	> 25 µM	15.2 µM	> 25 µM
CC(C)c1ccc2c(N=Nc3ccc(S(N)(=O)=O)cc3)c(O)[nH]c2c1	> 25 µM	> 25 µM	> 25 µM	> 25 µM	> 11.9 µM	> 20.7 µM	> 25 µM	> 25 µM	9.86 µM	> 25 µM	> 21.5 µM	> 25 µM	> 14 µM	> 25 µM	> 14.5 µM	> 25 µM	> 12.1 µM	> 24 µM	5.09 µM	> 17.4 µM
CCOCCc1c(O)nc(SC)[nH]c1=O	> 100 µM	> 100 µM	> 100 µM	> 100 µM	> 100 µM	> 100 µM	> 100 µM	> 100 µM	> 100 µM	> 100 µM	> 100 µM	> 100 µM	> 100 µM	> 100 µM	> 100 µM	> 100 µM	> 100 µM	> 100 µM	> 100 µM	> 100 µM
O=C(CSc1nc2ccc([N+](=O)[O-])cc2[nH]1)Nc1cccc(Cl)c1	3 µM	12.2 µM	3.2 µM	40.4 µM	1.97 µM	9.99 µM	2.13 µM	22.3 µM	1.2 µM	2.6 µM	1.43 µM	4.16 µM	2.46 µM	8.57 µM	2.92 µM	15.9 µM	3.31 µM	11.8 µM	2.6 µM	13.1 µM
COC(=O)CSc1ccccc1	–	> 100 µM	–	> 100 µM	–	> 100 µM	–	> 100 µM	–	> 100 µM	–	> 100 µM	–	> 100 µM	–	> 100 µM	–	> 100 µM	–	> 100 µM
O=C(/C=C/c1ccccn1)c1ccccc1O	2.15 µM	6.15 µM	2.43 µM	7.04 µM	1.31 µM	2.6 µM	2.98 µM	8.84 µM	3.95 µM	14.1 µM	2.21 µM	7.14 µM	1.92 µM	3.51 µM	3.21 µM	13.4 µM	2.28 µM	4.95 µM	2.02 µM	5.78 µM
C/C(=N\Nc1ccc2ccccc2n1)c1ccccc1O	–	> 100 µM	–	> 58.5 µM	–	> 100 µM	–	> 100 µM	–	> 100 µM	–	> 100 µM	–	> 100 µM	–	> 100 µM	–	> 100 µM	–	> 100 µM
COc1ccc(CN2C(=O)C(Cc3cc(OC)c(OC)c(C)c3OC)N(C(=O)OC(C)C)C(=O)/C2=C/c2cc(OC)c(OC)c(C)c2OC)cc1 (stereo not drawn)	–	> 100 µM	–	> 100 µM	–	> 100 µM	–	> 100 µM	–	> 100 µM	–	> 100 µM	–	> 100 µM	–	> 100 µM	–	> 100 µM	–	> 100 µM
CN(CCCCCl)P(=O)(OCc1ccc([N+](=O)[O-])o1)C(F)(F)c1ccc(CC(=O)N[C@@H](CC(=O)O)C(=O)N[C@@H](Cc2ccc(C(F)(F)P(=O)(OCc3ccc([N+](=O)[O-])o3)N(C)CCCCCl)cc2)C(N)=O)cc1 (stereo partly drawn)	28 µM	64.5 µM	31.4 µM	91.2 µM	> 100 µM	> 100 µM	39.1 µM	> 100 µM	43.8 µM	> 100 µM	33 µM	87.5 µM	> 100 µM	> 100 µM	54.9 µM	> 100 µM	76.1 µM	> 100 µM	50.8 µM	> 100 µM
O=c1cc2n(c(=O)[nH]1)C1OC(C(O)C1O)[C@H]2CCO (stereo partly drawn)	–	> 100 µM	–	> 100 µM	–	> 100 µM	–	> 100 µM	–	> 100 µM	–	> 100 µM	–	> 100 µM	–	> 100 µM	–	> 100 µM	–	> 100 µM
C[As](C)Sc1ccnc(S[As](C)C)n1	1.13 µM	–	1.43 µM	–	3.73 µM	26.9 µM	3.44 µM	36.3 µM	2.3 µM	10.7 µM	26 µM	> 100 µM	1.85 µM	15.1 µM	14.7 µM	> 56.2 µM	2.64 µM	14.3 µM	7.03 µM	> 100 µM
Cc1cc(C)nc(NS(=O)(=O)c2ccc(NC(=O)c3cccc4c(Nc5ccc(S(=O)(=O)Nc6nc(C)cc(C)n6)cc5)c5ccccc5nc34)cc2)n1	–	48.9 µM	–	62.8 µM	–	37.3 µM	–	64.1 µM	–	36.6 µM	–	35.9 µM	–	49.8 µM	–	82.4 µM	–	73.3 µM	–	38.6 µM
COC(=O)NNc1c([N+](=O)[O-])cnn(-c2ccccc2)c1=O	–	3.06 µM	–	2.61 µM	–	15.9 µM	–	3.85 µM	–	8.36 µM	–	78.2 µM	–	10.2 µM	–	23.2 µM	–	32.5 µM	–	4.59 µM
O=C(Nc1ccc(Cl)c(Cl)c1)C(=O)Nn1c(=S)[nH]c2ccccc2c1=O	–	> 100 µM	–	> 100 µM	–	> 100 µM	–	> 100 µM	–	> 100 µM	–	> 100 µM	–	> 100 µM	–	> 100 µM	–	> 100 µM	–	> 100 µM
O=S(=O)(O)c1ccc(Cl)cc1.[Cd]	51.7 µM	> 100 µM	79.2 µM	> 100 µM	> 100 µM	> 100 µM	51.9 µM	> 100 µM	4.58 µM	16.9 µM	> 100 µM	> 100 µM	> 100 µM	> 100 µM	> 100 µM	> 100 µM	> 100 µM	> 100 µM	34 µM	> 100 µM
